The values that follow come from patent US20250144094A1 (Erasca, Inc., priority 2021, published 2025).

In this test the target is Recombinant human ULK1 (1-649) (Homo sapiens (Human), UniProt O75385). Put plainly: ULK1 ADP Glo kinase activity assay, new method (ULKtide peptide substrate). Particulars: 25° C., 40 minutes, read-out: ULK1 biochemical IC50. The method in brief: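 Kinase activity was read as ADP production (ADP-Glo, luminescence 30 min after detection reagent) following a 40-min, 25 °C reaction of Sf9-expressed GST-ULK1 (1-649) with ULKtide substrate and ATP. Compounds ran as 12-point series starting at 10 μM; four-parameter curve fitting versus DMSO wells gave IC50.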
Chain of Recombinant human ULK1 (1-649) (O75385 1-649): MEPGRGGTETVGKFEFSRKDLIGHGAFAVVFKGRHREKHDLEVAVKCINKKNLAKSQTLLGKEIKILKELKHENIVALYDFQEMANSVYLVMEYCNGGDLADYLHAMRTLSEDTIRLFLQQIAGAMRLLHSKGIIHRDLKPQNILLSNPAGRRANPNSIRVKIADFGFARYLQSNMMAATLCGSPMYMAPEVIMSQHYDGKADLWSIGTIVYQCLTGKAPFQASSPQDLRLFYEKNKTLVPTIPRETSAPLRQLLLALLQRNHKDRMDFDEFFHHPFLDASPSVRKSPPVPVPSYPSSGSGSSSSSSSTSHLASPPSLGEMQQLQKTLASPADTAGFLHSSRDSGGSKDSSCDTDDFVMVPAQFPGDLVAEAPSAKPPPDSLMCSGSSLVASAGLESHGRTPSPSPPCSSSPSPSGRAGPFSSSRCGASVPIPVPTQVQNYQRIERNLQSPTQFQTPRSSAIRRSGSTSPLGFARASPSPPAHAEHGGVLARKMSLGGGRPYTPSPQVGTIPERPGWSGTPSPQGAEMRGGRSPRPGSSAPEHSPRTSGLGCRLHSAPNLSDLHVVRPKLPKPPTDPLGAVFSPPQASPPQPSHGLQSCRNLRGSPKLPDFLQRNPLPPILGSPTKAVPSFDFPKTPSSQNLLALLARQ
(ADP-Glo turns the ADP formed in a reaction into a luminescent signal.)

For `CN1CCS(=O)(=O)c2cc(-c3nc(Nc4cc5c(cc4C4CC4)CNC5)ncc3C(F)(F)F)sc2C1=O` [Example 177, 7-(2-((6-cyclopropylisoindolin-5-yl)amino)-5-(trifluoromethyl)pyrimidin-4-yl)-4-methyl-3,4-dihydrothieno[2,3-f][1,4]thiazepin-5(2H)-one 1,1-dioxide], the IC50 (as a rule, the concentration that inhibits the measured activity by half) was at most 5 nM.

For the compound `CCc1cc2c(cc1Nc1ncc(C(F)(F)F)c(-c3cc4c(s3)C(=O)N(C3COC3)CCS4(=O)=O)n1)CNCC2` [Example 262, 7-(2-((6-ethyl-1,2,3,4-tetrahydroisoquinolin-7-yl)amino)-5-(trifluoromethyl)pyrimidin-4-yl)-4-(oxetan-3-yl)-3,4-dihydrothieno[2,3-f][1,4]thiazepin-5(2H)-one 1,1-dioxide], the IC50 is at most 5 nM.

On to `CN1CCS(=O)(=O)c2cc(-c3nc(Nc4ccc(N5C[C@H]6C[C@@H]5CN6)cc4C4CC4)ncc3C(F)(F)F)sc2C1=O` [Example 379, 7-(2-((4-((1R,4R)-2,5-diazabicyclo[2.2.1]heptan-2-yl)-2-cyclopropylphenyl)amino)-5-(trifluoromethyl)pyrimidin-4-yl)-4-methyl-3,4-dihydrothieno[2,3-f][1,4]thiazepin-5(2H)-one 1,1-dioxide], for which the IC50 is at most 5 nM.

Consider `CCc1cc2c(cc1Nc1ncc(C(F)(F)F)c(-c3cc4c(s3)C(=O)N(C3CC3)CCS4(=O)=O)n1)CNCC2` [Example 220, 4-cyclopropyl-7-(2-((6-ethyl-1,2,3,4-tetrahydroisoquinolin-7-yl)amino)-5-(trifluoromethyl)pyrimidin-4-yl)-3,4-dihydrothieno[2,3-f][1,4]thiazepin-5(2H)-one 1,1-dioxide], for which the IC50 is at most 5 nM.

As to `Cc1cnc(Nc2cc3c(cc2Cl)CNCC3)nc1-c1cc2c(s1)C(=O)N(C)CCS2(=O)=O` [Example 259, 7-(2-((7-chloro-1,2,3,4-tetrahydroisoquinolin-6-yl)amino)-5-methylpyrimidin-4-yl)-4-methyl-3,4-dihydrothieno[2,3-f][1,4]thiazepin-5(2H)-one 1,1-dioxide], the IC50 is at most 5 nM.

In the case of `C[C@@H]1CN(c2ccc(Nc3ncc(C(F)(F)F)c(-c4cc5c(s4)C(=O)N(C4CC4)CCS5(=O)=O)n3)c(C3CC3)c2)CCN1` [Example 308, (R)-4-cyclopropyl-7-(2-((2-cyclopropyl-4-(3-methylpiperazin-1-yl)phenyl)amino)-5-(trifluoromethyl)pyrimidin-4-yl)-3,4-dihydrothieno[2,3-f][1,4]thiazepin-5(2H)-one 1,1-dioxide], the IC50 is at most 5 nM.

Take `CN1CC(n2cc(Nc3ncc(C(F)(F)F)c(-c4cc(S(C)(=O)=O)cs4)n3)c(C3CC3)n2)C1` [Example 145, N-(3-cyclopropyl-1-(1-methylazetidin-3-yl)-1H-pyrazol-4-yl)-4-(4-(methylsulfonyl)thiophen-2-yl)-5-(trifluoromethyl)pyrimidin-2-amine]: the IC50 lay in the range of 5 to 10 nM.

For `CCc1cc2c(cc1Nc1ncc(C(F)(F)F)c(-c3cc4c(s3)C(=O)N(C)CCS4(=O)=O)n1)CCNC2` [Example 147, 7-(2-((7-ethyl-1,2,3,4-tetrahydroisoquinolin-6-yl)amino)-5-(trifluoromethyl)pyrimidin-4-yl)-4-methyl-3,4-dihydrothieno[2,3-f][1,4]thiazepin-5(2H)-one 1,1-dioxide], the IC50 is at most 5 nM.

Turning to `C[C@@H]1CN(c2ccc(Nc3ncc(C(F)(F)F)c(-c4cc5c(s4)C(=O)N(C4COC4)CCS5(=O)=O)n3)c(C3CC3)c2)CCN1C` [Example 316, (R)-7-(2-((2-cyclopropyl-4-(3,4-dimethylpiperazin-1-yl)phenyl)amino)-5-(trifluoromethyl)pyrimidin-4-yl)-4-(oxetan-3-yl)-3,4-dihydrothieno[2,3-f][1,4]thiazepin-5(2H)-one 1,1-dioxide], the IC50 was at most 5 nM.

Take `CCc1cc2c(cc1Nc1ncc(C(F)(F)F)c(-c3cc4c(s3)C(=O)N(C3COC3)CCS4(=O)=O)n1)CCN(CC1COC1)C2` [Example 275, 7-(2-((7-ethyl-2-(oxetan-3-ylmethyl)-1,2,3,4-tetrahydroisoquinolin-6-yl)amino)-5-(trifluoromethyl)pyrimidin-4-yl)-4-(oxetan-3-yl)-3,4-dihydrothieno[2,3-f][1,4]thiazepin-5(2H)-one 1,1-dioxide]: the IC50 is at most 5 nM.

Take `CN1[C@@H]2CC[C@H]1CN(c1ccc(Nc3ncc(C(F)(F)F)c(-c4cc5c(s4)C(=O)N(C4COC4)CCS5(=O)=O)n3)c(C3CC3)c1)C2` [Example 320, 7-(2-((2-cyclopropyl-4-((1R,5S)-8-methyl-3,8-diazabicyclo[3.2.1]octan-3-yl)phenyl)amino)-5-(trifluoromethyl)pyrimidin-4-yl)-4-(oxetan-3-yl)-3,4-dihydrothieno[2,3-f][1,4]thiazepin-5(2H)-one 1,1-dioxide]: the IC50 is at most 5 nM.

With `CCc1cc2c(cc1Nc1ncc(C(F)(F)F)c(-c3cc4c(s3)C(=O)N(C3CCC3)CCS4(=O)=O)n1)CCNC2` [Example 208, 4-cyclobutyl-7-(2-((7-ethyl-1,2,3,4-tetrahydroisoquinolin-6-yl)amino)-5-(trifluoromethyl)pyrimidin-4-yl)-3,4-dihydrothieno[2,3-f][1,4]thiazepin-5(2H)-one 1,1-dioxide], the concentration for half-maximal inhibition (IC50) is at most 5 nM.

With `Cc1nn(C2CCNCC2)cc1Nc1ncc(C(F)(F)F)c(-c2cc3c(s2)C(=O)NCCS3(=O)=O)n1` [Example 165, 7-(2-((3-methyl-1-(piperidin-4-yl)-1H-pyrazol-4-yl)amino)-5-(trifluoromethyl)pyrimidin-4-yl)-3,4-dihydrothieno[2,3-f][1,4]thiazepin-5(2H)-one 1,1-dioxide], the IC50 is above 100 nM.

Regarding `CN1CCS(=O)(=O)c2cc(-c3nc(Nc4ccc(N5CCNCC5)cc4Cl)ncc3C(F)(F)F)sc2C1=O` [Example 193, 7-(2-((2-chloro-4-(piperazin-1-yl)phenyl)amino)-5-(trifluoromethyl)pyrimidin-4-yl)-4-methyl-3,4-dihydrothieno[2,3-f][1,4]thiazepin-5(2H)-one 1,1-dioxide], the IC50 was at most 5 nM.

As to `O=C1c2sc(-c3nc(Nc4cc5c(nc4C4CC4)CNCC5)ncc3C(F)(F)F)cc2S(=O)(=O)CCN1C1CC1` [Example 303, 4-cyclopropyl-7-(2-((2-cyclopropyl-5,6,7,8-tetrahydro-1,7-naphthyridin-3-yl)amino)-5-(trifluoromethyl)pyrimidin-4-yl)-3,4-dihydrothieno[2,3-f][1,4]thiazepin-5(2H)-one 1,1-dioxide], the IC50 was at most 5 nM.

As for `CCc1cc(N2CCN[C@@H](C)C2)ccc1Nc1ncc(C(F)(F)F)c(-c2cc3c(s2)C(=O)N(C2CC2)CCS3(=O)=O)n1` [Example 353, (S)-4-cyclopropyl-7-(2-((2-ethyl-4-(3-methylpiperazin-1-yl)phenyl)amino)-5-(trifluoromethyl)pyrimidin-4-yl)-3,4-dihydrothieno[2,3-f][1,4]thiazepin-5(2H)-one 1,1-dioxide], the half-inhibitory concentration (IC50) was at most 5 nM.

As for `CCc1cc(N2CCN[C@@H](CO)C2)ccc1Nc1ncc(C(F)(F)F)c(-c2cc3c(s2)C(=O)N(C2COC2)CCS3(=O)=O)n1` [Example 355, (R)-7-(2-((2-ethyl-4-(3-(hydroxymethyl)piperazin-1-yl)phenyl)amino)-5-(trifluoromethyl)pyrimidin-4-yl)-4-(oxetan-3-yl)-3,4-dihydrothieno[2,3-f][1,4]thiazepin-5(2H)-one 1,1-dioxide], the IC50 was at most 5 nM.

For the compound `CCc1cc(N2CCN(C)CC2)ccc1Nc1ncc(C(F)(F)F)c(-c2cc3c(s2)C(=O)N(C)CCS3(=O)=O)n1` [Example 196, 7-(2-((2-ethyl-4-(4-methylpiperazin-1-yl)phenyl)amino)-5-(trifluoromethyl)pyrimidin-4-yl)-4-methyl-3,4-dihydrothieno[2,3-f][1,4]thiazepin-5(2H)-one 1,1-dioxide], the IC50 is at most 5 nM.

As to `CN1CCS(=O)(=O)c2cc(-c3nc(Nc4cc5c(cc4Cl)CNCC5)ncc3C3CC3)sc2C1=O` [Example 283, 7-(2-((7-chloro-1,2,3,4-tetrahydroisoquinolin-6-yl)amino)-5-cyclopropylpyrimidin-4-yl)-4-methyl-3,4-dihydrothieno[2,3-f][1,4]thiazepin-5(2H)-one 1,1-dioxide], the IC50 is at most 5 nM.

Regarding `CCc1cc(N2CCN(C)[C@@H](CO)C2)ccc1Nc1ncc(C(F)(F)F)c(-c2cc3c(s2)C(=O)N(C2CC2)CCS3(=O)=O)n1` [Example 408, (R)-4-cyclopropyl-7-(2-((2-ethyl-4-(3-(hydroxymethyl)-4-methylpiperazin-1-yl)phenyl)amino)-5-(trifluoromethyl)pyrimidin-4-yl)-3,4-dihydrothieno[2,3-f][1,4]thiazepin-5(2H)-one 1,1-dioxide], the IC50 is at most 5 nM.

As to `CCc1cc2c(cc1Nc1ncc(C(F)(F)F)c(-c3cc4c(s3)C(=O)N(C3CC3)CCS4(=O)=O)n1)CCNC2` [Example 207, 4-cyclopropyl-7-(2-((7-ethyl-1,2,3,4-tetrahydroisoquinolin-6-yl)amino)-5-(trifluoromethyl)pyrimidin-4-yl)-3,4-dihydrothieno[2,3-f][1,4]thiazepin-5(2H)-one 1,1-dioxide], the half-inhibitory concentration (IC50) is at most 5 nM.

Regarding `O=C1c2sc(-c3nc(Nc4ccc(C5CCN(CC6COC6)CC5)cc4C4CC4)ncc3C(F)(F)F)cc2S(=O)(=O)CCN1C1CC1` [Example 254, 4-cyclopropyl-7-(2-((2-cyclopropyl-4-(1-(oxetan-3-ylmethyl)piperidin-4-yl)phenyl)amino)-5-(trifluoromethyl)pyrimidin-4-yl)-3,4-dihydrothieno[2,3-f][1,4]thiazepin-5(2H)-one 1,1-dioxide], the IC50 was at most 5 nM.

For the compound `O=S1(=O)CCNS(=O)(=O)c2sc(-c3nc(Nc4cc5c(cc4C4CC4)CNCC5)ncc3C(F)(F)F)cc21` [Example 311, 7-(2-((7-cyclopropyl-1,2,3,4-tetrahydroisoquinolin-6-yl)amino)-5-(trifluoromethyl)pyrimidin-4-yl)-3,4-dihydro-2H-thieno[3,2-f][1,5,2]dithiazepine 1,1,5,5-tetraoxide], the IC50 was at most 5 nM.
